Assay type in all cases: functional
Common to all, as to details: read-out: ED50 (the source's name)

One experiment concerns A549. The experiment in a line: Cytotoxicity against human A549 cells.
The next experiment has as its system L1210. The experiment in a line: Cytotoxicity against mouse L1210 cells.
Another experiment deals with HCT-8. The experiment in a line: Cytotoxicity against human HCT8 cells.
The subject of another experiment is KB. The experiment in a line: Cytotoxicity against human KB cells.
For a further experiment, the system named is P388. The experiment in a line: Cytotoxicity against mouse P388 cells.

Values after ≈ are worked out from the molar mass of the structure shown.

For `CC(=O)O[C@H]1C[C@@H](O)[C@]2(C=O)[C@H]3CC[C@]4(C)[C@@H](c5ccc(=O)oc5)CC[C@]4(O)[C@@H]3CC[C@]2(O)C1`, the EC50 in the experiment on A549 was 0.04 µg/mL (≈ 0.0843 µM); in the experiment with L1210 it was over 0.004 µg/mL; in the experiment on HCT-8, 0.01 µg/mL (≈ 0.0211 µM); in the experiment on KB, under 0.04 µg/mL; with P388, over 0.004 µg/mL.

Consider `C[C@@]12O[C@H]3C[C@@H](O1)[C@]1(C=O)[C@H]4[C@H](O)C[C@]5(C)[C@@H](c6ccc(=O)oc6)CC[C@]5(O)[C@@H]4CC[C@@]1(C3)O2` [BRYOPHYLLIN A], for which the EC50 with A549 was 0.01 µg/mL (≈ 0.0212 µM); in the experiment with L1210, over 0.004 µg/mL; with HCT-8 it was 0.03 µg/mL (≈ 0.0635 µM); in the experiment with KB, 0.014 µg/mL (≈ 0.0296 µM); in the experiment with P388, over 0.004 µg/mL.

With `CC(=O)O[C@@H]1C[C@H](O)C[C@@]2(O)CC[C@@H]3[C@@H]4[C@@H](C[C@]5(C)[C@@H](c6ccc(=O)oc6)CC[C@]35O)O[C@H](O)[C@]412` [BRYOPHYLLIN B], the EC50 in the experiment with KB was under 0.08 µg/mL.

Values taken from ChEMBL document CHEMBL1147309, “Antitumor agents, 110. Bryophyllin B, a novel potent cytotoxic bufadienolide from Bryophyllum pinnatum” (1989).
